The source of these data is US6861435B2, “Urokinase inhibitors” (Pentapharm AG, priority 2001, dated 2005).

Where a name gives a salt, the structure may show the parent alone.

For this assay, the target named is T1, sc-urokinase (Homo sapiens, UniProt P00749).
T1 construct: purchased Ribosepharm GmbH, Haan, Germany
The assay can be described thus: Determination of the urokinase-inhibiting activity (chromogenic substrate, Dixon). Conditions: Pefachrome UK or Bz-βAla-Gly-Arg-pNA, 25° C., pH 8.0, mean from at least 3 determinations. The class given is biochemical. How it is done:
Determination of the Urokinase-inhibiting Activity
To determine the inhibitory activity, 200 μl of Tris buffer (0.05 mol/l, containing the inhibitor, 0.154 mol/l of NaCl, 5% ethanol, pH 8.0), 25 μl of substrate (Pefachrome UK or Bz-βAla-Gly-Arg-pNA in H2O; Pentapharm Ltd., Basel, Switzerland) and 50 μl of sc-urokinase (Ribosepharm GmbH, Haan, Germany) were incubated at 25° C. After 3 min the reaction was stopped by the addition of 25 μl of acetic acid (50%) and the absorption was determined at 405 nm by means of a microplate reader (MR 50001 Dynatech, Denkendorf, Germany). The Ki values were determined according to Dixon by linear regression using a computer program. The Ki values represent the mean from at least 3 determinations.
The Ki values mentioned in Table 2 can be determined according to the above mentioned method.

Regarding `CCOC(=O)N1CCN(C(=O)N(Cc2cccc(C(N)=NN)c2)NS(=O)(=O)c2c(C(C)C)cc(C(C)C)cc2C(C)C)CC1` [Example 18], the Ki was determined as 25.6 ± 9.5 µM.
With `CCOC(=O)N1CCN(C(=O)N(Cc2cccc(C(=N)N)c2)NS(=O)(=O)c2c(C(C)C)cc(C(C)C)cc2C(C)C)CC1` [Example 5, 1-Ethoxycarbonyl-4-[1-(3-(amino-imino-methyl)-benzyl)-2-(2,4,6-triisopropyl-benzenesulfonyl)-1-hydrazino-carbonyl]-piperazine hydrochloride], the Ki is 0.67 ± 0.18 µM.

The Ki is the equilibrium dissociation constant of an inhibitor or competing ligand from its target.
